From patent publication US7256257B2, “Pentapeptide compounds and uses related thereto” (priority 2001, dated 2007) come the findings set out here.

For data set [1], the system named is 3396 human breast carcinoma cells. As to the kind of experiment: In vitro cytotoxicity, XTT, 3396 cells. It is filed as cell-based. As to conditions: 3396 breast, exposed 1 hr, washed, XTT 96 hr later. How it is done:
(§1) In vitro cytotoxicity experiments were performed to compare the activities of auristatin E (29a) and drugs of this invention. 3396 and Karpas cells were exposed to the drug for 1 and 2 hr respectively. The cells were washed, and cytotoxicity was determined 96 hr later using XTT to measure mitochondrial integrity.
(In general: Tetrazolium dyes change colour on reduction, which living cells bring about.)

Data set [2] deals with Karpas 299 (ALCL). As to the kind of experiment: In vitro cytotoxicity, XTT, Karpas 299 cells. It is filed as cell-based. As to conditions: exposed 2 hr, washed, XTT 96 hr later. How it is done:
as §1

Data set [3] has as its system L428 Hodgkin's lymphoma. As to the kind of experiment: In vitro cytotoxicity, 3H-thymidine incorporation, L428 cells. It is filed as cell-based. As to conditions: 3H-thymidine incorporation 72 hours later. How it is done:
(§2) To obtain the results shown in Table 4, the cells were exposed to drugs for 1-2 hours, and the cytotoxic effects were determined 72 hours later by the incorporation of ^3H-thymidine into DNA. Antigen expression was determined by flow cytometry and is expressed in terms of mean fluorescence intensity (MFI).
(§3) These figures show the cytotoxic effects of auristatin E and auristatin E-containing conjugates on L2987 human lung adenocarcinoma cells (FIG. 19A); and various hematologic cell lines treated with AC10-S-40a (FIG. 19B). In all assays, cells were exposed to the drugs for 2 hours, washed, and the cytotoxic activities were measured 72 hours later using ^3H-thymidine incorporation.
(Uptake of a labelled nucleoside into DNA is a usual measure of proliferation.)

In data set [4] the test system is purified esterases from rhesus monkey livers. As to the kind of experiment: Exposure to purified liver esterases (rhesus monkey). The format is in vitro ADME. To be noted: prolonged exposure.
Data set [5] concerns L540 Hodgkin's lymphoma. In words: In vitro cytotoxicity, 3H-thymidine incorporation, L540 cells. The format is cell-based. As to conditions: 3H-thymidine incorporation 72 hours later. How it is done:
as §2, §3

For data set [6], the system named is AU565 (breast). In words: In vitro cytotoxicity, 3H-thymidine incorporation, AU565 cells. The format is cell-based. To be noted: exposed 1-2 hours, 3H-thymidine incorporation 72 hours later. How it is done: as §2
For data set [7], the system named is purified esterases from guinea pig livers. As to the kind of experiment: Exposure to purified liver esterases (guinea pig). As to conditions: prolonged exposure. It is filed as in vitro ADME.
The test system of data set [8] is Karpas anaplastic large cell lymphoma. In words: In vitro cytotoxicity, 3H-thymidine incorporation, Karpas cells. The format is cell-based. As to conditions: Karpas ALCL; exposed 1-2 hours, 3H-thymidine incorporation 72 hours later. How it is done:
as §2, §3

For data set [9], the system named is Kato III human gastric carcinoma cells. In words: In vitro cytotoxicity, 3H-thymidine incorporation, Kato III cells. The format is cell-based. To be noted: exposed 1-2 hours, 3H-thymidine incorporation 72 hours later. As for the experimental part:
as §2
(§4) The cytotoxic effects of the mAb-S-36 conjugates on L2987 human lung adenocarcinoma cells (strongly BR96 antigen positive, weakly S2C6 antigen positive) and on Kato III human gastric carcinoma cells, (strongly BR96 antigen positive, S2C6 antigen negative) are shown in FIGS. 18A, 18B and 18C. These figures show the in vitro cytotoxicity of drugs and mAb-drug conjugates on (FIG. 18A) and (FIG. 18B) L2987 human lung adenoma cells, and (FIG. 18A) and (FIG. 18C) Kato III human gastric carcinoma cells. L2987 cells are positive for the antigens recognized by BR96 (LeY) and S2C6 (CD40), but express the LeY antigen at higher levels. Kato III cells are positive for the LeY antigen and negative for CD40. Cells were exposed to the conjugates for 2 hours, washed, and the cytotoxic effects were determined 3 days later using a thymidine incorporation assay.

Data set [10] relates to purified esterases from rabbit livers. In words: Exposure to purified liver esterases (rabbit). The format is in vitro ADME. To be noted: prolonged exposure.
The test system of data set [11] is IM-9 (Multiple myeloma). In words: In vitro cytotoxicity, 3H-thymidine incorporation, IM-9 cells. The format is cell-based. As to conditions: exposed 1-2 hours, 3H-thymidine incorporation 72 hours later. As for the experimental part: as §2, §3
The subject of data set [12] is SKBR3 (breast). In words: In vitro cytotoxicity, 3H-thymidine incorporation, SKBR3 cells. It is filed as cell-based. To be noted: 3H-thymidine incorporation 72 hours later. How it is done:
as §2

In data set [13] the test system is L2987 human lung adenocarcinoma cells. In words: In vitro cytotoxicity, 3H-thymidine incorporation, L2987 cells. It is filed as cell-based. As to conditions: for IC50: L2987 lung, exposed 1-2 hours, 3H-thymidine incorporation 72 hours later. As for the experimental part: as §2, §4, §3
For data set [14], the system named is purified esterases from human livers. In words: Exposure to purified liver esterases (human). It is filed as in vitro ADME. As to conditions: prolonged exposure.
Data set [15] in a line: Stability in human serum. It is filed as in vitro ADME. As to conditions: 120 hours incubation at 37 C.
In data set [16] the test system is Daudi Burkitt's lymphoma cells. In words: In vitro cytotoxicity, 3H-thymidine incorporation, Daudi cells. The format is cell-based. To be noted: for IC50: Daudi Burkitt's lymphoma, exposed 1-2 hours, 3H-thymidine incorporation 72 hours later. How it is done: as §2, §3
The mark [17] stands for this setting: Homo sapiens, Breast carcinoma cell.

Molecules are shown by their SMILES. Where a SMILES comes first, the peptide text is derived from it. [ ]: non-standard residue; d: D form. The star is where a group is joined. Dolaproine = CO[C@@H]([C@@H]1CCCN1)[C@@H](C)C(=O)O; Dil = CC[C@H](C)[C@H](NC)[C@@H](CC(=O)O)OC; NMe2Val = CC(C)[C@@H](C(=O)*)N(C)C; dPhe(ol) = N[C@@H](CO)Cc1ccccc1; Phe(ol) = N[C@H](CO)Cc1ccccc1

As to `CO[C@H]([C@@H](C)C(=O)N[C@H](C)[C@@H](OC(=O)CC(C)=O)c1ccccc1)[C@@H]1CCCN1C(=O)C[C@@H](OC)[C@H](C)N(C)C(=O)[C@@H](NC(=O)[C@H](C(C)C)N(C)C)C(C)C` [Compound 52, Acetoacetic Ester of Auristatin E], in data set [1] (setting [17]), the IC50 (as a rule, the midpoint of a concentration-inhibition curve) amounted to 20 nM.
`CC[C@H](C)[C@@H]([C@@H](CC(=O)N1CCC[C@H]1[C@H](OC)[C@@H](C)C(=O)N[C@H](COC(=O)c1ccc(C(C)=O)cc1)Cc1ccccc1)OC)N(C)C(=O)[C@@H](NC(=O)[C@H](C(C)C)N(C)C)C(C)C` [Compound 47]: the values for the IC50 in data set [1] (setting [17]) and in data set [2] (Homo sapiens) were 0.35 nM and 0.075 nM, respectively.
`CC[C@H](C)[C@@H]([C@@H](CC(=O)N1CCC[C@H]1[C@H](OC)[C@@H](C)C(=O)N[C@@H](CO)Cc1ccccc1)OC)N(C)C(=O)[C@@H](NC(=O)[C@H](C(C)C)N(C)C)C(C)C` [Compound 33] (NMe2Val-V[Dil][Dolaproine][dPhe(ol)]) came in with an IC50 in data set [1] (setting [17]) of 70 nM.
Same read-out and setting: the same measure for `CC[C@H](C)[C@@H]([C@@H](CC(=O)N1CCC[C@H]1[C@H](OC)[C@@H](C)C(=O)N[C@H](COc1ccc(C(C)=O)cc1)Cc1ccccc1)OC)N(C)C(=O)[C@@H](NC(=O)[C@H](C(C)C)N(C)C)C(C)C` [Compound 58]: 2.5 nM.
As to `CC[C@H](C)[C@@H]([C@@H](CC(=O)N1CCC[C@H]1[C@H](OC)[C@@H](C)C(=O)N[C@@H](C)[C@H](OC(=O)c1ccc(C(C)=O)cc1)c1ccccc1)OC)N(C)C(=O)[C@@H](NC(=O)[C@H](C(C)C)N(C)C)C(C)C` [Compound 39a, 4-acetyl-benzoic Ester of Auristatin E], the IC50 is 13 nM in data set [3] (exposed 1-2 hours); 16 nM in [5] (exposed 1-2 hours); 6 nM in data set [6]; 16 nM in data set [1]; 13 nM in data set [8]; 5 nM in data set [9]. Moreover, the IC50 in [11] was determined as 50 nM; in [12] (exposed 1-2 hours) it was 6 nM; in [13] it was 0.9 nM; in data set [2], 4 nM; in data set [16], 15 nM. The “conversion to auristatin E (29a) by liver esterases” value in [4], in data set [7], in [10] and in data set [14] was “failed to demonstrate any conversion” in each case. Moreover, the “cytotoxicity relative to auristatin E (29a)” value in data set [13] (L2981 cells (so in the source)) was “as cytotoxic as auristatin E (29a)”. In [15], the “hydrolysis in human serum” value is recorded as “no detectable hydrolysis”. In addition, the “times less cytotoxic than auristatin E (29a)” value in data set [16] (Daudi Burkitt's lymphoma cells) is “approximately 17 times”.
`CC[C@H](C)[C@@H]([C@@H](CC(=O)N1CCC[C@H]1[C@H](OC)[C@@H](C)C(=O)N[C@@H](COC(=O)c1ccc(C(C)=O)cc1)Cc1ccccc1)OC)N(C)C(=O)[C@@H](NC(=O)[C@H](C(C)C)N(C)C)C(C)C` [Compound 49]: in data set [1] (setting [17]), the IC50 was 34 nM.
With `CC[C@H](C)[C@@H]([C@@H](CC(=O)N1CCC[C@H]1[C@H](OC)[C@@H](C)C(=O)N[C@H](C)[C@@H](OC(=O)CCCCC(=O)c1ccccc1)c1ccccc1)OC)N(C)C(=O)[C@@H](NC(=O)[C@H](C(C)C)N(C)C)C(C)C` [Compound 50, 5-benzoylvaleric Ester of Auristatin E], in data set [1] (setting [17]), the IC50 stood at 3 nM.
`CC[C@H](C)[C@@H]([C@@H](CC(=O)N1CCC[C@H]1[C@H](OC)[C@@H](C)C(=O)N[C@H](CO)Cc1ccccc1)OC)N(C)C(=O)[C@@H](NC(=O)[C@H](C(C)C)N(C)C)C(C)C` [Compound 32] (NMe2Val-V[Dil][Dolaproine][Phe(ol)]) gave an IC50 in data set [1] (setting [17]) of 4.5 nM.
For the compound `CC[C@H](C)[C@@H]([C@@H](CC(=O)N1CCC[C@H]1[C@H](OC)[C@@H](C)C(=O)N[C@H](C)[C@@H](O)c1ccccc1)OC)N(C)C(=O)[C@@H](NC(=O)[C@H](C(C)C)N(C)C)C(C)C` [Compound 29a, N,N-dimethyl-L-valyl-N-[(1S,2R)-4-[(2S)-2-[(1R,2R)-3-[[(1R,2S)-2-hydroxy-1-methyl-2-phenylethyl]amino]-1-methoxy-2-methyl-3-oxopropyl]-1-pyrrolidinyl]-2-methoxy-1-[(1S)-1-methylpropyl]-4-oxobutyl]-N-methyl-L-valinamide, reference compound], the IC50 was found to be 1.5 nM in data set [3] (Homo sapiens, L-428, exposed 1-2 hours); 1.5 nM in data set [5] (Homo sapiens, L-540, exposed 1-2 hours); 1.5 nM in data set [6] (Homo sapiens); 6 nM in data set [1] (setting [17]); 1.2 nM in data set [8]; 0.7 nM in data set [9] (Homo sapiens). In addition, the IC50 came out at 3.5 nM in data set [11] (Homo sapiens); 1.5 nM in [12] (Homo sapiens, SK-BR-3, exposed 1-2 hours); 1 nM in data set [13] (Homo sapiens); 1.2 nM in [2] (Homo sapiens); 0.9 nM in data set [16] (Homo sapiens).
